Measurements published in PMC7203153, “Rational identification and characterisation of peptide ligands for targeting polysialic acid” (Scientific Reports, 2020).
Where a SMILES comes first, the peptide text is derived from it.

Experiment: Fluorescence anisotropy (FA) assay of peptide–PSA binding
Set-up: species or system Escherichia coli
Protocol: Peptides (Table 2) were synthesized at >95% purity (confirmed with HPLC) by Biomatik (see Supplementary Information). All peptides were N-terminally acetylated and C-terminally labelled with tetramethylrhodamine dye (TAMRA). TAMRA was chosen as a label due to its pH insensitivity compared to FAM (fluorescein) and related dyes commonly used for fluorescence assays. Experiments were conducted in black 384-well plates with non-binding surface (NBS, Corning, Inc.) to minimize background binding and enhance signal-to-noise ratio in the fluorescence-based binding assay. Titrations were carried out through addition of TAMRA-labelled peptide (8 μL, final concentration 20 nM) to CA (72 μL, final concentrations 0–1500 μM) in PBS, pH 7.4 (10 mM phosphate, 100 mM NaCl), and solutions were incubated with agitation to equilibrium at room temperature (3 h, ~20 °C). Parallel and perpendicular intensities were subsequently measured at 530 nm excitation (band width 5 nm) and 580 nm emission (band width 20 nm) in fluorescence polarization mode with a Tecan Infinite M1000 Pro plate reader. Total fluorescence intensities were also measured as a control for fluorophore properties with target binding; fluorescence intensities of free peptide were determined to be approximately equivalent to intensities with peptide–CA mixtures. At higher concentrations of free CA (control with no peptide addition), attenuation of detected light differed in parallel and perpendicular planes, so respective intensities were subtracted from peptide–CA intensities prior to anisotropy calculations. […] Unique samples were screened in at least triplicate within each titration experiment, and each peptide titration was carried out at least twice. In experimental repeats, peptide locations on plates were varied to prevent location-specific effects, if any, and different combinations of peptides were assessed at once. Anisotropies were calculated from corrected parallel and perpendicular intensities, and values were fit to the four-parameter logistic binding model[70] in MATLAB. Prior to curve fitting, anisotropy values for each peptide were transformed through subtraction of minimum values to enhance comparison between peptides. The resulting translations in binding curves were identical, within error, to change in anisotropy curves obtained through subtraction of anisotropy of free labelled peptide. Bmax and KD values obtained were used in the calculation of Bmax/KD ratios for comparison to microarray intensity values, and the Pearson correlation coefficient (r) was determined.

## CC(=O)N[C@@H](Cc1ccccc1)C(=O)N[C@@H](CCCCN)C(=O)NCC(=O)N[C@@H](CCCNC(=N)N)C(=O)N[C@H](C(=O)N[C@@H](CO)C(=O)N1CCC[C@H]1C(=O)N[C@@H](CCCCN)C(=O)N[C@H](C(=O)NCC(=O)N[C@@H](C)C(=O)N1CCC[C@H]1C(=O)N[C@H](C(=O)N[C@@H](C)C(=O)N[C@H](C(N)=O)[C@@H](C)O)C(C)C)[C@@H](C)O)[C@@H](C)O [I-P24] (Ac-FKGRTSPKTGAPVAT-NH2)
500 µM PSA (CA), Neu5Ac 0–150 mM, PBS pH 7.4
  binding to PSA in competitive FA assay with Neu5Ac: largely maintained
FA titration, N-acetylated, C-terminally TAMRA-labelled peptide 20 nM, CA 0–1500 μM, PBS pH 7.4 (10 mM phosphate, 100 mM NaCl), 3 h, ~20 °C, four-parameter logistic fit, at least two independent experiments, at least triplicate, * = accuracy likely poor (SE > KD)
  Kd: 521 µM
From FA curve fits, among the peptides characterised with FA
  Bmax/KD ratio (binding potential): highest
